Experimental data from article PMC7920811 (Neoplasia (New York, N.Y.), 2021).

Molecular target: STAT3 (Homo sapiens, UniProt P40763)
Assay: label-free microscale thermophoresis
Type: binding

Sequence of STAT3 (P40763 2-770): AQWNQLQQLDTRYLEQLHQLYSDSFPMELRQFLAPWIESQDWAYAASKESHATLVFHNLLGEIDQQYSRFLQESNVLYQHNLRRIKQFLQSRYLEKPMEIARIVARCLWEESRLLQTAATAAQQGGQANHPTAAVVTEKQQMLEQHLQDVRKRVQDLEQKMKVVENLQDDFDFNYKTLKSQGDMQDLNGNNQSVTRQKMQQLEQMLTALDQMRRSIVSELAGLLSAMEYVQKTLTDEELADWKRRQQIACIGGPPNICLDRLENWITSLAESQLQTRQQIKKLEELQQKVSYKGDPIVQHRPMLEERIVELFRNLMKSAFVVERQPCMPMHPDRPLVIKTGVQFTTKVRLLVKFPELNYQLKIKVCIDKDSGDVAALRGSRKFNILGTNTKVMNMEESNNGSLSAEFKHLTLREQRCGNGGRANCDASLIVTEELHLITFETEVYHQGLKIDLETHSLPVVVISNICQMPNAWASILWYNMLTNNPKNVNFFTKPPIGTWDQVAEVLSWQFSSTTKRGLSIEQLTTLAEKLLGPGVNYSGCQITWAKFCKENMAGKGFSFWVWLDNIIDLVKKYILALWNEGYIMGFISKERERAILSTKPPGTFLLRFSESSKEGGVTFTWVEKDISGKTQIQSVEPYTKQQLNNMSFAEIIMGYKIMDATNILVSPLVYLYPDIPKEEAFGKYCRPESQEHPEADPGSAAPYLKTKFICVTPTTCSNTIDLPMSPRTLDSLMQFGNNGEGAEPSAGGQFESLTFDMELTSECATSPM

Molecule `CC(=O)Nc1ccc(O)cc1` [AAP, acetaminophen] has a Kd of 600 ± 400 nM.
